Data reported in patent US8853258B2, “C-linked hydroxamic acid derivatives useful as antibacterial agents” (Pfizer Inc., priority 2009, dated 2014).
In brackets after ≈: the same amount, converted by molar mass. Like-named read-outs stand apart in the source and are kept apart here.

Key:
[1] = target: Pseudomonas aeruginosa LpxC enzyme (Pseudomonas aeruginosa (strain ATCC 15692 / DSM 22644 / CIP 104116 / JCM 14847 / LMG 12228 / 1C / PRS 101 / PAO1), UniProt P47205); assay: IC50 Assay, LpxC Enzyme from P. aeruginosa (PA LpxC Enzyme IC50); type: biochemical
Method in brief: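 Reaction run 1 h then stopped with 1N HCl. Conversion measured by RapidFire high-throughput mass spectrometry. IC50 derived from percent conversion relative to a no-enzyme control.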

[2] = tested on: Acinetobacter baumanii/haemolyticus: Multidrug-resistant clinical isolate (AB-3167); assay: MIC determination (CLSI), AB-3167; type: cell-based; details: for MIC: Acinetobacter baumannii
Method in brief: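 Multidrug-resistant clinical isolate AB-3167 (A. baumannii/haemolyticus) tested for minimum inhibitory concentration following CLSI dilution susceptibility standards M7-A7 and M100-S18.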

[3] = tested on: Klebsiella pneumoniae: Ciprofloxacin-resistant isolate, ESBL, clinical isolate (KP-3700); assay: MIC determination (CLSI), KP-3700; type: cell-based
Method in brief: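 MIC measured by broth dilution according to CLSI M7-A7 and M100-S18 standards. Test organism was a ciprofloxacin-resistant, ESBL-expressing clinical isolate.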

[4] = tested on: Escherichia coli EC-1: VOGEL, mouse virulent; assay: MIC determination (CLSI), EC-1; type: cell-based; details: for MIC: Escherichia coli
Method in brief: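 E. coli Vogel, a mouse-virulent strain (EC-1), was tested. MICs were set by dilution susceptibility testing per CLSI standards M7-A7/M100-S18.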

[5] = tested on: Pseudomonas aeruginosa UI-18: Wild-type (PA-7); assay: MIC determination (CLSI), PA-7; type: cell-based; details: for MIC: Pseudomonas aeruginosa
Method in brief: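 MIC by dilution method per CLSI M7-A7 and M100-S18 guidelines. Strain: wild-type Pseudomonas aeruginosa UI-18.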

[6] = P. aeruginosa LpxC enzyme, read-out: PA LpxC enzyeme IC50
[7] = Acinetobacter baumanii/haemolyticus AB-3167
[8] = Pseudomonas aeruginosa UI-18 (PA-7)
[9] = Table 3, read-out: PA LpxC enzyeme IC^50
[10] = Acinetobacter baumanii/haemolyticus multidrug-resistant clinical isolate AB-3167
[11] = Escherichia coli EC-1 VOGEL, mouse virulent
[12] = Pseudomonas aeruginosa UI-18 wild-type PA-7

SMILES	KP-3700 MIC [3]	IC50 [1, 6] [nM]	IC50 [1, 9] [nM]	MIC ([2]; Table 3, read-out: AB-3167 MIC) [µg/mL]	MIC ([4]; read-out: EC-1 MIC) [µg/mL]	MIC ([5]; Table 3, read-out: PA-7 MIC) [µg/mL]	AB-3167 MIC [2, 10]	EC-1 MIC [4, 11]	PA-7 MIC [5, 12] [µg/mL]	also measured
CC(CCc1ccc(OCc2ccccn2)cc1)(C(=O)NO)S(C)(=O)=O (racemic) [Example 16, (+/−)-N-Hydroxy-2-methyl-2-(methylsulfonyl)-4-[4-(pyridin-2-ylmethoxy)phenyl]butanamide]	≧64 mg/L									IC50 ([1]; PA LpxC enzyeme IC50, Table 1): 5.01 nM; MIC ([2]; Table 1, MIC, read-out: AB-3167 (MIC)): ≥ 64 µg/mL; MIC ([4]; read-out: EC-1: (MIC)): ≥ 64 µg/mL; MIC ([5]; Table 1, MIC, read-out: PA-7 (MIC)): 16 µg/mL (≈ 42.3 µM)
C[C@@](CCc1ccc(-c2ccc(NS(C)(=O)=O)cc2)cc1)(C(=O)NO)S(C)(=O)=O [Example 210]	16 µg/mL	0.706								AB-3167 MIC [2, 7]: ≧64 mg/L; EC-1 MIC ([4]; Escherichia coli EC-1): 4 µg/mL; PA-7 MIC [5, 8]: 2 µg/mL
Cc1nncn1-c1ccc(OCCOc2ccc(CCC(C)(C(=O)NO)S(C)(=O)=O)cc2)cc1 (stereo not shown) [Example 290, N-hydroxy-2-methyl-2-(methylsulfonyl)-4-(4-{2-[4-(3-methyl-4H-1,2,4-triazol-4-yl)phenoxy]ethoxy}phenyl)butanamide]	32 µg/mL		3.56	≥ 64	8 (≈ 16.4 µM)	≥ 64				
CC(Oc1ccc(CCC(C)(C(=O)NO)S(C)(=O)=O)cc1)c1ccccc1 (stereo not shown) [Example 282, N-hydroxy-2-methyl-2-(methylsulfonyl)-4-[4-(1-phenylethoxy)phenyl]butanamide]	≧64 mg/L		9.55	32 (≈ 81.7 µM)	8 (≈ 20.4 µM)	≥ 64				
C[C@@](CCc1ccc(-c2ccc3c(c2)C(=O)NC3)cc1)(C(=O)NO)S(C)(=O)=O [Example 208]	16 µg/mL	0.374								AB-3167 MIC [2, 7]: ≧64 mg/L; EC-1 MIC ([4]; Escherichia coli EC-1): 4 µg/mL; PA-7 MIC [5, 8]: 2 µg/mL
Cc1cc(CCC(C)(C(=O)NO)S(C)(=O)=O)ccc1-c1ccccc1 (stereo not shown) [Example 159]	16 µg/mL	5.58					32 µg/mL	4 µg/mL	8	
CC(CCc1ccc(-c2cccc(C#N)c2)cc1)(C(=O)NO)S(C)(=O)=O (stereo not shown) [Example 64]	8 µg/mL	0.739					≧64 mg/L	4 µg/mL	2	
C[C@@](CCc1ccc(-c2ccc(C#N)cc2)cc1)(C(=O)NO)S(C)(=O)=O [Example 107]	1 µg/mL	0.134					16 µg/mL	0.25 µg/mL	0.25	
CC(CCc1ccc(-c2ccc3c(c2)CNC3)cc1)(C(=O)NO)S(C)(=O)=O (stereo not shown) [Example 173]	≧64 mg/L	2.68					≧64 mg/L	≧64 mg/L	16	
Cc1ccc(OCc2noc(COc3ccc(CCC(C)(C(=O)NO)S(C)(=O)=O)cc3)n2)cc1 (stereo not shown) [Example 286, N-hydroxy-2-methyl-4-[4-({3-[(4-methylphenoxy)methyl]-1,2,4-oxadiazol-5-yl}methoxy)phenyl]-2-(methylsulfonyl)butanamide]	≧64 mg/L		11.9	≥ 64	32 (≈ 65.4 µM)	≥ 64				
CC(CCc1ccc(OCc2ccc(C(F)(F)F)cc2)cc1)(C(=O)NO)S(C)(=O)=O (stereo not shown) [Example 301, N-hydroxy-2-methyl-2-(methylsulfonyl)-4-(4-{[4-(trifluoromethyl)benzyl]oxy}phenyl)butanamide]	8 µg/mL		2.08	4 (≈ 8.98 µM)	4 (≈ 8.98 µM)	8 (≈ 18 µM)				
CC(C)c1ccc(-c2noc(COc3ccc(CCC(C)(C(=O)NO)S(C)(=O)=O)cc3)n2)cc1 (stereo not shown) [Example 299, N-hydroxy-4-(4-{[3-(4-isopropylphenyl)-1,2,4-oxadiazol-5-yl]methoxy}phenyl)-2-methyl-2-(methylsulfonyl)butanamide]	≧64 mg/L		3.93	≥ 64	16 (≈ 32.8 µM)	≥ 64				
CC(CCc1ccc(-c2ccccc2F)cc1)(C(=O)NO)S(C)(=O)=O (stereo not shown) [Example 50]	8 µg/mL	0.731					16 µg/mL	2 µg/mL	0.5	
C[C@@](CCc1ccc(-c2ccc(OCC(=O)N3CCC(O)CC3)cc2)cc1)(C(=O)NO)S(C)(=O)=O [Example 221]	≧64 mg/L	0.533								AB-3167 MIC [2, 7]: ≧64 mg/L; EC-1 MIC ([4]; Escherichia coli EC-1): 16 µg/mL; PA-7 MIC [5, 8]: 16 µg/mL
